According to ChEMBL document CHEMBL4270595, “Design, synthesis, antiproliferative activity, molecular docking and cell cycle analysis of some novel (morpholinosulfonyl) isatins with potential EGFR inhibitory activity” (Eur J Med Chem, 2018):
pIC50: −log10 of the molar value. The source made the active and inactive calls. No cut-off for these calls is given here.

What was measured:
HepG2 [1] = test: Cytotoxicity against human HepG2 cells after 24 hrs by SRB assay; assay type: functional, cell-based; conditions: HepG2, 24 h
HCT-116 = test: Cytotoxicity against human HCT116 cells after 24 hrs by SRB assay; assay type: functional, cell-based; conditions: HCT-116, 24 h
[2] = Cytotoxicity against human Caco cells after 24 hrs by SRB assay; assay type: functional, cell-based
MCF7 = test: Cytotoxicity against human MCF7 cells after 24 hrs by SRB assay; assay type: functional, cell-based; conditions: MCF7, 24 h
WI-38 = test: Cytotoxicity against human WI38 cells after 24 hrs by SRB assay; assay type: cell-based; conditions: WI-38, 24 h
[3] = target: T1, Epidermal growth factor receptor (Homo sapiens, UniProt P00533); test: Inhibition of EGFR in human HepG2 cells; assay type: cell-based
T1 sequence (P00533 whole entry): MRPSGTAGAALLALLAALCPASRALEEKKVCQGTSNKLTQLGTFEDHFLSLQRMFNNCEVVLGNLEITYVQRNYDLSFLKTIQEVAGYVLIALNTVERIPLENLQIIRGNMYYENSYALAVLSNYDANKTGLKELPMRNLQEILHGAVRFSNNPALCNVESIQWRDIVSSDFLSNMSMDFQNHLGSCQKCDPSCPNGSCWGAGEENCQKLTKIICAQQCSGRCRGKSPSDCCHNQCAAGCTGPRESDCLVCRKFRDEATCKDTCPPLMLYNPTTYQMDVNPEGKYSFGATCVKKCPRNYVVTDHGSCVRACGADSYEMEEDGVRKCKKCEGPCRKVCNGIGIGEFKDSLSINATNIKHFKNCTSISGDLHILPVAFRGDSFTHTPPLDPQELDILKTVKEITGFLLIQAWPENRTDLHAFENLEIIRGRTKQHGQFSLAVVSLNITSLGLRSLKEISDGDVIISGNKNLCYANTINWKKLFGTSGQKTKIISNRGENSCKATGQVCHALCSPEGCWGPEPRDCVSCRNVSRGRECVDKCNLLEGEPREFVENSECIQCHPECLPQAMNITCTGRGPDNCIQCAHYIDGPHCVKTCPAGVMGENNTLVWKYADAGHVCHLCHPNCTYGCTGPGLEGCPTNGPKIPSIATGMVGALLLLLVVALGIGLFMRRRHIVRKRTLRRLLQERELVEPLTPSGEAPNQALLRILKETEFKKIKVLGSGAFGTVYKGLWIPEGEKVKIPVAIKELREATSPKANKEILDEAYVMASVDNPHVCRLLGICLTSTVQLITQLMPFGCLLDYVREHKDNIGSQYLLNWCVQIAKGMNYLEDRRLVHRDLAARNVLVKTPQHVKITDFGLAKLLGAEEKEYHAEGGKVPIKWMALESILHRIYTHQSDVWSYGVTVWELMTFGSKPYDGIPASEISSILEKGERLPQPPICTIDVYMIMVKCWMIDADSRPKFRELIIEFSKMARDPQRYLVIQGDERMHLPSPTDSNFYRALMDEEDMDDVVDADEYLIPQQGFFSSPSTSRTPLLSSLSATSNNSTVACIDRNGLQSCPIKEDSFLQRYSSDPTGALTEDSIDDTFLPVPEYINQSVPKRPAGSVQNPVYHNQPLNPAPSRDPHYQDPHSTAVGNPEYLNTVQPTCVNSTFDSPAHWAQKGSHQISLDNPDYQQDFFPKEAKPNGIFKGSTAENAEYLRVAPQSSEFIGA

HepG2 [4] = test: Cell cycle arrest in human HepG2 cells assessed as accumulation of cells at G0/G1 phase at 10 uM after 24 hrs by flow cytometric analysis (reference value: 52.31%); assay type: functional
HepG2 [5] = test: Cell cycle arrest in human HepG2 cells assessed as accumulation of cells at S phase at 10 uM after 24 hrs by flow cytometric analysis (reference value: 31.31%); assay type: functional
HepG2 [6] = test: Cell cycle arrest in human HepG2 cells assessed as accumulation of cells at G2/M phase at 10 uM after 24 hrs by flow cytometric analysis (reference value: 16.38%); assay type: functional
HepG2 [7] = test: Cell cycle arrest in human HepG2 cells assessed as accumulation of cells at pre-G1 phase at 10 uM after 24 hrs by flow cytometric analysis (reference value: 2.04%); assay type: functional
HepG2 [8] = test: Induction of apoptosis in human HepG2 cells assessed as viable cells at 10 uM after 24 hrs by Annexin V-FITC/ propidium iodide staining-based flow cytometric analysis (reference value: 96.09%); assay type: functional; conditions: HepG2, 24 h, read-out: Activity
HepG2 [9] = test: Induction of apoptosis in human HepG2 cells assessed as early apoptotic cells at 10 uM after 24 hrs by Annexin V-FITC/ propidium iodide staining-based flow cytometric analysis (reference value: 0.51%); assay type: functional
HepG2 [10] = test: Induction of apoptosis in human HepG2 cells assessed as late apoptotic cells at 10 uM after 24 hrs by Annexin V-FITC/ propidium iodide staining-based flow cytometric analysis (reference value: […]); assay type: functional
HepG2 [11] = test: Induction of apoptosis in human HepG2 cells assessed as necrotic cells at 10 uM after 24 hrs by Annexin V-FITC/ propidium iodide staining-based flow cytometric analysis (reference value: 1.28%); assay type: functional
[12] = Inhibition of recombinant human FGFR preincubated for 5 mins followed by ATP addition and measured after 30 mind by HTRF assay
[13] = target: Epidermal growth factor receptor (Homo sapiens, UniProt P00533, L858R); test: Inhibition of recombinant human EGFR L858R mutant expressed in baculovirus infected insect cells preincubated for 5 mins followed by ATP addition and measured after 30 mins by HTRF assay; assay type: cell-based
Sequence of Epidermal growth factor receptor (Homo sapiens, UniProt P00533, L858R) (P00533 25-1210 L858R limits assumed): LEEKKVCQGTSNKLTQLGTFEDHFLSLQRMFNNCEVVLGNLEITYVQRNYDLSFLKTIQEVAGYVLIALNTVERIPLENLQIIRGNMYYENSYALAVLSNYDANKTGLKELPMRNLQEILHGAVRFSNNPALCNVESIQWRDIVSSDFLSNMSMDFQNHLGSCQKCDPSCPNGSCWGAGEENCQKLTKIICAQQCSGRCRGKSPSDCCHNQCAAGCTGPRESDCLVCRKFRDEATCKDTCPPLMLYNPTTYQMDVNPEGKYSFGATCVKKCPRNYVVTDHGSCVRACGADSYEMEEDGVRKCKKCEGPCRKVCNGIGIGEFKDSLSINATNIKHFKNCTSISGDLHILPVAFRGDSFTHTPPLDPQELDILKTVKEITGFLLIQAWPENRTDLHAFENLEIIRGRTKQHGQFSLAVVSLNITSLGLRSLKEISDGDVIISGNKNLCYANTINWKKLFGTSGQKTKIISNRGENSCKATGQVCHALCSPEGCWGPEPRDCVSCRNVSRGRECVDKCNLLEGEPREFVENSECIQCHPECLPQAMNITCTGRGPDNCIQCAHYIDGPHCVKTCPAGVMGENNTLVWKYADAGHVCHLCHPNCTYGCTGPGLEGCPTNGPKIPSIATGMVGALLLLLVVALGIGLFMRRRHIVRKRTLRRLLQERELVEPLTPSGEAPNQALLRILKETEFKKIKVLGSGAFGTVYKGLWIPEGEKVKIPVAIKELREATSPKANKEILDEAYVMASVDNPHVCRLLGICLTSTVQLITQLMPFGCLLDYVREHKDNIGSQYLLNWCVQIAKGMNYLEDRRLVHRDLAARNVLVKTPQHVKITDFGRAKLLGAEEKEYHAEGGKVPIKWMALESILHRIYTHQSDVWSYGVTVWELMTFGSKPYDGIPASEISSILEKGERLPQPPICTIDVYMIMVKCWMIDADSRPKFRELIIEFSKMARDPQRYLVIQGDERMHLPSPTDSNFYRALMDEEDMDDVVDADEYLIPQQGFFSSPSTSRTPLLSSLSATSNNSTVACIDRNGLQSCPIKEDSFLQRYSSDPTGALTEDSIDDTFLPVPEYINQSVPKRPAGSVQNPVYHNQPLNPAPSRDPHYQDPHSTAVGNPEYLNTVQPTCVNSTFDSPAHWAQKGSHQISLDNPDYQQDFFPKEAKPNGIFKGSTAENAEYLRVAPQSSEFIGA

[14] = target: Epidermal growth factor receptor (Homo sapiens, UniProt P00533, T790M); test: biochemical; assay type: cell-based, Sf21
Sequence of Epidermal growth factor receptor (Homo sapiens, UniProt P00533, T790M) (P00533 25-1210 T790M limits assumed): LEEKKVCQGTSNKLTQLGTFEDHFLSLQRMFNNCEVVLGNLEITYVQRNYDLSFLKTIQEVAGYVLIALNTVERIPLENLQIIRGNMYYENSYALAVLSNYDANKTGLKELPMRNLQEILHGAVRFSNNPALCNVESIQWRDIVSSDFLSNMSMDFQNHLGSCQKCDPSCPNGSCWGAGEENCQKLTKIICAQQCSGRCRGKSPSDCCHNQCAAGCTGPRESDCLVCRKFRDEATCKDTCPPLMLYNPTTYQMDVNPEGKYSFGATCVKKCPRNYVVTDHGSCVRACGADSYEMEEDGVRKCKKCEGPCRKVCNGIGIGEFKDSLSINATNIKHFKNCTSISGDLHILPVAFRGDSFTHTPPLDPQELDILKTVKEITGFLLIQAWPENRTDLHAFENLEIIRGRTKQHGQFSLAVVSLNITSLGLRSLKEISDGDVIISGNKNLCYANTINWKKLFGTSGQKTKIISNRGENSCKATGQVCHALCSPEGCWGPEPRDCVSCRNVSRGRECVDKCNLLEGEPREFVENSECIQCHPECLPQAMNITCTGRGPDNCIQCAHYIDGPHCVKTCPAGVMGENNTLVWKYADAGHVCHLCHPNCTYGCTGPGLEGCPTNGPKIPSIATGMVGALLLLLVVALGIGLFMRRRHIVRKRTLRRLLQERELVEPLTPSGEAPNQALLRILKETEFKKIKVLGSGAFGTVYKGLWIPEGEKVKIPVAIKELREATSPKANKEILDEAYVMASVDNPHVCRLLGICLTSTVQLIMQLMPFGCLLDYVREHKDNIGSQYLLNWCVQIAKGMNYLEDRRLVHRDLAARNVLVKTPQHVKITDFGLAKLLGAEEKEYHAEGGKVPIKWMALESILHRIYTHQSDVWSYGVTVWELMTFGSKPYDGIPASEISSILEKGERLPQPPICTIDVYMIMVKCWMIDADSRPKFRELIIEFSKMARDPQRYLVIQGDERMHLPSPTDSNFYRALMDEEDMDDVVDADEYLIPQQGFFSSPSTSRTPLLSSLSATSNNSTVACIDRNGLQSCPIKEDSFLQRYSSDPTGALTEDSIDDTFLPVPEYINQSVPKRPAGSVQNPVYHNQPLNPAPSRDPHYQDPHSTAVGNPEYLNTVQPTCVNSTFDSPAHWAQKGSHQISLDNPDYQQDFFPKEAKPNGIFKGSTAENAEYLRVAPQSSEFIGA

[15] = target: Vascular endothelial growth factor receptor (Homo sapiens, UniProt P17948+P35916+P35968); assay type: cell-based; conditions: sf9
Description: Inhibition of GST-tagged recombinant human VEGFR (789-end) expressed in baculovirus infected Sf9 insect cells preincubated for 5 mins followed by ATP addition and measured after 30 mins by HTRF assay

[16] = target: Receptor tyrosine-protein kinase erbB-2 (Homo sapiens, UniProt P04626); test: Inhibition of recombinant human GST-tagged HER2 (676-end) expressed in baculovirus infected Sf9 insect cells preincubated for 5 mins followed by ATP addition and measured after 30 mins by HTRF assay
Sequence of Receptor tyrosine-protein kinase erbB-2 (P04626 whole entry): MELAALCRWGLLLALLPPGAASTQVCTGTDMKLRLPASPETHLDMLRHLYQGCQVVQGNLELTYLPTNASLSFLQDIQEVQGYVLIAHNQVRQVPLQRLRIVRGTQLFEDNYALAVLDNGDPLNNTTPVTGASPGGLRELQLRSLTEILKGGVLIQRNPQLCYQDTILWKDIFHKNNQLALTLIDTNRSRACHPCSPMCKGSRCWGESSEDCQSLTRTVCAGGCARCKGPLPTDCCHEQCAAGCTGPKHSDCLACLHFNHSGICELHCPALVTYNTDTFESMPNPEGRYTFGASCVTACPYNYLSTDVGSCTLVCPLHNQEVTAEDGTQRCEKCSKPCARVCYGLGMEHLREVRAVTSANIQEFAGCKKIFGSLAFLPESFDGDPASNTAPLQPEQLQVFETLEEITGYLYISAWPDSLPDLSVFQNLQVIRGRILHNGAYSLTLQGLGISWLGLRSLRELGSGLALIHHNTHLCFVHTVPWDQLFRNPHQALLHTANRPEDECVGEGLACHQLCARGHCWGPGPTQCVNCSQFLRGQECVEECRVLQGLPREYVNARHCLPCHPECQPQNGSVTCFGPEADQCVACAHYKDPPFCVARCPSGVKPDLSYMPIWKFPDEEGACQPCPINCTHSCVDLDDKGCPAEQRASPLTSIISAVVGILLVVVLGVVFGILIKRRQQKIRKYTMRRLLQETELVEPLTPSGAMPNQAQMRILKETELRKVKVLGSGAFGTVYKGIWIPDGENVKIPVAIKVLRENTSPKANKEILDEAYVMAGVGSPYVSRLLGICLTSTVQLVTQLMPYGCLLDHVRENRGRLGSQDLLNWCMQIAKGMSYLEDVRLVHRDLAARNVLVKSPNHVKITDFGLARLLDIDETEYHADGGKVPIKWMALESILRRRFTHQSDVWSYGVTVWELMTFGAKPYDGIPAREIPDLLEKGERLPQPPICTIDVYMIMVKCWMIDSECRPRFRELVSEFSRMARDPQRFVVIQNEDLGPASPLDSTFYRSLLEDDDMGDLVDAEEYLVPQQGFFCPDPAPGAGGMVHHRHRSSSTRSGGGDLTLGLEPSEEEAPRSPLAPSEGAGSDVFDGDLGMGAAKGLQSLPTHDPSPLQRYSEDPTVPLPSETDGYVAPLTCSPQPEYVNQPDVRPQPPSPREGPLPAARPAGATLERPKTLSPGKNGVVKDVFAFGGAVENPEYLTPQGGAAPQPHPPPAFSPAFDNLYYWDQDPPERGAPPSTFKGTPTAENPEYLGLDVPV

[17] = target: T1, Epidermal growth factor receptor; test: Inhibition of EGFR in human HepG2 cells assessed as suppression of EGFR phosphorylation after 8 hrs by Western blot analysis; assay type: cell-based
[18] = target: T1, Epidermal growth factor receptor; test: Inhibition of EGFR in human HepG2 cells assessed as suppression of ERK phosphorylation up to 2 uM after 8 hrs by Western blot analysis; assay type: cell-based

SMILES | pIC50 (HepG2 [1]) | pIC50 (HCT-116) | pIC50 [2] | pIC50 (MCF7) | pIC50 (WI-38) | further results
CC(=O)c1cccc(/N=C2\C(=O)Nc3ccc(S(=O)(=O)N4CCOCC4)cc32)c1 | 4.54 | 4.54 | 4.67 | 4.41 | 3.75 | –
O=S(=O)(c1ccc2[nH]c3nc4ccccc4nc3c2c1)N1CCOCC1 | 4.57 | 4.72 | 4.72 | 4.39 | 3.38 | –
CS(=O)(=O)CCNCc1ccc(-c2ccc3ncnc(Nc4ccc(OCc5cccc(F)c5)c(Cl)c4)c3c2)o1 [LAPATINIB] | 4.93 | 5.23 | 4.92 | 5.30 | – | –
O=C1Nc2ccc(S(=O)(=O)N3CCOCC3)cc2/C1=N/NC(=O)c1ccccc1 | 4.74 | 4.54 | 4.44 | 3.38 | 3.53 | –
O=C1Nc2ccc(S(=O)(=O)N3CCOCC3)cc2/C1=N/c1ccc(C(=O)O)cc1 | 4.64 | 4.63 | 4.59 | 4.57 | 3.50 | –
O=C1Nc2ccc(S(=O)(=O)N3CCOCC3)cc2/C1=N/Nc1ccccc1 | 4.81 | 4.98 | 4.70 | 4.52 | 3.58 | pIC50 [3]: 7.34; Activity (HepG2 [4]): 38.92%; Activity (HepG2 [5]): 14.77%; Activity (HepG2 [6]): 48.31%; Activity (HepG2 [7]): 16.46%; viability at 10 µM (HepG2 [8]): 81.4%; Activity (HepG2 [9]): 4.28%; Activity (HepG2 [10]): 9.49%; Activity (HepG2 [11]): 2.69%
O=C1Nc2ccc(S(=O)(=O)N3CCOCC3)cc2C1=O | 4.54 | 4.22 | 4.34 | 4.17 | 3.23 | –
O=C1Nc2ccc(S(=O)(=O)N3CCOCC3)cc2/C1=N/c1ccc(/N=C2\C(=O)Nc3ccc(S(=O)(=O)N4CCOCC4)cc32)cc1 | 5.05 | 5.13 | 5.04 | 4.96 | 3.69 | pIC50 [3]: 5.93
N/N=C1\C(=O)Nc2ccc(S(=O)(=O)N3CCOCC3)cc21 | 4.49 | 4.44 | 4.30 | 4.33 | 3.41 | –
COC(=O)c1ccccc1/N=C1\C(=O)Nc2ccc(S(=O)(=O)N3CCOCC3)cc21 | 4.85 | 4.73 | 4.63 | 4.50 | 3.64 | –
O=C1Nc2ccc(S(=O)(=O)N3CCOCC3)cc2/C1=N/NS(=O)(=O)c1ccccc1 | 4.62 | 4.88 | 4.78 | 4.60 | 3.52 | –
O=C1Nc2ccc(S(=O)(=O)N3CCOCC3)cc2/C1=N/c1ccc(Cl)cc1 | 4.93 | 4.61 | 4.63 | 4.35 | 3.33 | –
O=C1Nc2ccc(S(=O)(=O)N3CCOCC3)cc2/C1=N/c1ccc(O)cc1 | 4.98 | 4.56 | 4.75 | 4.28 | 3.59 | pIC50 [3]: 6.12
COc1ccc(C2=C(C#N)C3=NC4=Nc5ccc(S(=O)(=O)N6CCOCC6)cc5C4=NC3C(O)=C2C#N)cc1 (stereo not drawn) | 5.14 | 5.01 | 5.14 | 4.92 | 3.49 | pIC50 [3]: 6.97
O=C1Nc2ccc(S(=O)(=O)N3CCOCC3)cc2/C1=N/c1ccc(Br)cc1 | 4.92 | 4.82 | 4.53 | 4.35 | 3.43 | –
COc1ccc(-c2c(C#N)c(N)n(/N=C3\C(=O)Nc4ccc(S(=O)(=O)N5CCOCC5)cc43)c(=O)c2C#N)cc1 | 4.82 | 4.74 | 4.99 | 4.48 | 3.65 | pIC50 [3]: 5.71
O=C1Nc2ccc(S(=O)(=O)N3CCOCC3)cc2/C1=N/c1cccc(C(F)(F)F)c1 | 4.84 | 4.80 | 4.67 | 4.39 | 3.65 | –
CC(=O)N/N=C1\C(=O)Nc2ccc(S(=O)(=O)N3CCOCC3)cc21 | 4.56 | 4.54 | 4.74 | 4.25 | 3.49 | –
COc1cccc2c1C(=O)c1c(O)c3c(c(O)c1C2=O)C[C@@](O)(C(=O)CO)C[C@@H]3O[C@H]1C[C@H](N)[C@H](O)[C@H](C)O1 [DOXORUBICIN] | 5.13 | 5.08 | 5.23 | – | – | –
C#Cc1cccc(Nc2ncnc3cc(OCCOC)c(OCCOC)cc23)c1 [ERLOTINIB] | – | – | – | – | – | pIC50 [12]: 7.52
Cc1ccc(S(=O)(=O)N/N=C2\C(=O)Nc3ccc(S(=O)(=O)N4CCOCC4)cc32)cc1 | 4.61 | 4.63 | 4.84 | 4.42 | 3.58 | –
Cc1ccc(/N=C2\C(=O)Nc3ccc(S(=O)(=O)N4CCOCC4)cc32)cc1 | 4.89 | 4.72 | 4.48 | 4.25 | 3.51 | –
N=c1oc2ccccc2cc1C(=O)N/N=C1\C(=O)Nc2ccc(S(=O)(=O)N3CCOCC3)cc21 | 5.11 | 5.17 | 5.09 | 4.68 | 3.88 | pIC50 [3]: 6.69
N#CCC(=O)N/N=C1\C(=O)Nc2ccc(S(=O)(=O)N3CCOCC3)cc21 | 5.12 | 4.99 | 5.02 | 4.56 | 3.52 | pIC50 [3]: 7.64; pIC50 [13]: 7.47; pIC50 [14]: 6.86; IC50 [15]: 0.276 µM; pIC50 [16]: 6.62; pIC50 [12]: 6.42; inhibition [17]: Dose-dependent effect; inhibition [18]: Active; Activity (HepG2 [4]): 40.31%; Activity (HepG2 [5]): 15.58%; Activity (HepG2 [6]): 44.11%; Activity (HepG2 [7]): 14.09%; viability at 10 µM (HepG2 [8]): 83.6%; Activity (HepG2 [9]): 3.17%; Activity (HepG2 [10]): 7.51%; Activity (HepG2 [11]): 3.41%
